Assay results as given in patent publication US20070281992A1, “COMBINATION OF GYRASE B INHIBITORS AND PROTEIN SYNTHESIS INHIBITORS AND USES THEREOF” (priority 2006, published 2007).
Like-named read-outs stand apart in the source and are kept apart here.

Columns and labels:
[1] = test system: Methicillin-Resistant Staphylococcus aureus Isolates; assay: MIC assay (NCCLS broth dilution), MRSA clinical isolates; type: cell-based; settings: for MIC: read-out: Minimal Inhibitory Concentration
Procedure: (§1) Antibiotics: novobiocin, tetracycline, minocycline, oxacillin, and vancomycin were all purchased from Sigma-Aldrich. Linezolid was obtained from Pfizer, Inc. Novobiocin/tetracycline and novobiocin/minocycline were tested in a 2.5:1 ratio to mimic the serum levels. (Vavra, J. J., 1967, Development of resistance to novobiocin, tetracycline, and novobiocin-tetracycline combinations in Staphylococcus aureus populations, J. Bacteriol 93(3):801). Compounds were tested across a concentration range consisting of 11 two-fold serial dilutions of test agent.
(§2) Stock solutions were prepared in sterile deionized water; novobiocin stock concentration was 1600 μg/mL and all other drugs stock solutions were prepared at 640 μg/mL. The stock solutions were allowed to sit at room temperature for one hour to auto-sterilize prior to use in the test. All compounds were in solution in water. The control agent was vancomycin hydrochloride, Sigma Chemical Lot # 015K0825.
(§3) The test organisms for the assay were 52 MSSA, 52 MRSA, 8 VISA, 7 VISE, and 3 LRSA isolates. Quality control strains included Staphylococcus aureus 0100 (ATCC 29213) and Enterococcus faecalis (ATCC 29212).
(§4) The MIC assay was performed according to published NCCLS guidelines. (National Committee for Clinical Laboratory Standards, Methods for Dilution Antimicrobial Susceptibility Tests for Bacteria that Grow Aerobically; Approved Standard-Sixth Edition, NCCLS Document M7-A6 [ISBN 1-56238-486-4], NCCLS, 940 West Valley Road, Suite 1400, Wayne, Pa. 19087-1898 USA, 2003). The test medium was Mueller Hinton II Broth for all organisms.

[2] = test system: Unconfirmed Vancomycin-intermediate Staphylococcus aureus Isolates; assay: MIC assay (NCCLS broth dilution), unconfirmed VISA isolates; type: cell-based; settings: for MIC: read-out: Minimal Inhibitory Concentration
Procedure: as §1, §2, §3, §4

[3] = Staphylococcus aureus, 52 MRSA isolates, combinations at 2.5:1, given as NB/partner

MIC Range ([1]; 52 MRSA isolates, combinations at 2.5:1, given as NB/partner): 2 to 4 µg/mL
MIC ([1]; Staphylococcus aureus, MRSA isolate 757, 24FEB06): 4 µg/mL
MIC ([1]; Staphylococcus aureus, MRSA isolate 758, 03MAR06): 4 µg/mL
MIC ([1]; Staphylococcus aureus, MRSA isolate 758, 24FEB06): 4 µg/mL
MIC ([1]; Staphylococcus aureus, MRSA isolate 760, 03MAR06): 2 µg/mL
MIC ([1]; Staphylococcus aureus, MRSA isolate 760, 24FEB06): 4 µg/mL
MIC ([1]; Staphylococcus aureus, MRSA isolate 763, 22FEB06): 4 µg/mL
MIC ([1]; Staphylococcus aureus, MRSA isolate 765, 22FEB06): 4 µg/mL
MIC ([1]; Staphylococcus aureus, MRSA isolate 766, 22FEB06): 4 µg/mL
MIC ([1]; Staphylococcus aureus, MRSA isolate 767, 22FEB06): 2 µg/mL
MIC ([1]; Staphylococcus aureus, MRSA isolate 768, 22FEB06): 2 µg/mL
MIC ([1]; Staphylococcus aureus, MRSA isolate 769, 22FEB06): 2 µg/mL
MIC ([1]; Staphylococcus aureus, MRSA isolate 770, 22FEB06): 2 µg/mL
MIC ([1]; Staphylococcus aureus, MRSA isolate 771, 22FEB06): 2 µg/mL
MIC ([1]; Staphylococcus aureus, MRSA isolate 772, 22FEB06): 2 µg/mL
MIC ([1]; Staphylococcus aureus, MRSA isolate 773, 24FEB06): 2 µg/mL
MIC ([1]; Staphylococcus aureus, MRSA isolate 774, 24FEB06): 2 µg/mL
MIC ([1]; Staphylococcus aureus, MRSA isolate 775, 24FEB06): 4 µg/mL
MIC ([1]; Staphylococcus aureus, MRSA isolate 776, 24FEB06): 2 µg/mL
MIC ([1]; Staphylococcus aureus, MRSA isolate 777, 24FEB06): 2 µg/mL
MIC ([1]; Staphylococcus aureus, MRSA isolate 778, 24FEB06): 2 µg/mL
MIC ([1]; Staphylococcus aureus, MRSA isolate 886, 24FEB06): 2 µg/mL
MIC ([1]; Staphylococcus aureus, MRSA isolate 887, 24FEB06): 4 µg/mL
MIC ([1]; Staphylococcus aureus, MRSA isolate 888, 24FEB06): 4 µg/mL
MIC ([1]; Staphylococcus aureus, MRSA isolate 889, 24FEB06): 4 µg/mL
MIC ([1]; Staphylococcus aureus, MRSA isolate 1004, 24FEB06): 4 µg/mL
MIC ([1]; Staphylococcus aureus, MRSA isolate 1010, 22FEB06): 2 µg/mL
MIC ([1]; Staphylococcus aureus, MRSA isolate 1012, 22FEB06): 2 µg/mL
MIC ([1]; Staphylococcus aureus, MRSA isolate 1013, 22FEB06): 2 µg/mL
MIC ([1]; Staphylococcus aureus, MRSA isolate 1014, 22FEB06): 2 µg/mL
MIC ([1]; Staphylococcus aureus, MRSA isolate 1015, 22FEB06): 2 µg/mL
MIC ([1]; Staphylococcus aureus, MRSA isolate 1016, 22FEB06): 2 µg/mL
MIC ([1]; Staphylococcus aureus, MRSA isolate 1017, 22FEB06): 2 µg/mL
MIC ([1]; Staphylococcus aureus, MRSA isolate 1021, 22FEB06): 2 µg/mL
MIC ([1]; Staphylococcus aureus, MRSA isolate 1022, 22FEB06): 2 µg/mL
MIC ([1]; Staphylococcus aureus, MRSA isolate 1023, 22FEB06): 2 µg/mL
MIC ([1]; Staphylococcus aureus, MRSA isolate 1024, 22FEB06): 2 µg/mL
MIC ([1]; Staphylococcus aureus, MRSA isolate 1025, 22FEB06): 2 µg/mL
MIC ([1]; Staphylococcus aureus, MRSA isolate 1135, 22FEB06): 2 µg/mL
MIC ([1]; Staphylococcus aureus, MRSA isolate 1136, 22FEB06): 4 µg/mL
MIC ([1]; Staphylococcus aureus, MRSA isolate 1137, 22FEB06): 2 µg/mL
MIC ([1]; Staphylococcus aureus, MRSA isolate 1138, 22FEB06): 4 µg/mL
MIC ([1]; Staphylococcus aureus, MRSA isolate 1222, 03MAR06): 2 µg/mL
MIC ([1]; Staphylococcus aureus, MRSA isolate 1222, 24FEB06): 2 µg/mL
MIC ([1]; Staphylococcus aureus, MRSA isolate 1653, 03MAR06): 2 µg/mL
MIC ([1]; Staphylococcus aureus, MRSA isolate 1658, 03MAR06): 2 µg/mL
MIC ([1]; Staphylococcus aureus, MRSA isolate 1659, 03MAR06): 2 µg/mL
MIC ([1]; Staphylococcus aureus, MRSA isolate 1661, 03MAR06): 4 µg/mL
MIC ([1]; Staphylococcus aureus, MRSA isolate 1729, 03MAR06): 2 µg/mL
MIC ([1]; Staphylococcus aureus, MRSA isolate 1730, 24FEB06): 4 µg/mL
MIC ([1]; Staphylococcus aureus, MRSA isolate 2009, 24FEB06): 2 µg/mL
MIC ([1]; Staphylococcus aureus, MRSA isolate 2010, 24FEB06): 2 µg/mL
MIC ([1]; Staphylococcus aureus, MRSA isolate 2011, 24FEB06): 4 µg/mL
MIC50 [1, 3]: 2 µg/mL
MIC90 [1, 3]: 4 µg/mL
MIC Range ([2]; 6 unconfirmed VISA isolates (vancomycin MIC 4 ug/ml), combinations at 2.5:1): 1 to 4 µg/mL
MIC ([2]; Staphylococcus aureus, Unconfirmed VISA isolate 2013, 03MAR06): 2 µg/mL
MIC ([2]; Staphylococcus aureus, Unconfirmed VISA isolate 2014, 03MAR06): 2 µg/mL
MIC ([2]; Staphylococcus aureus, Unconfirmed VISA isolate 2015, 03MAR06): 1 µg/mL
MIC ([2]; Staphylococcus aureus, Unconfirmed VISA isolate 2016, 03MAR06): 4 µg/mL
MIC ([2]; Staphylococcus aureus, Unconfirmed VISA isolate 2017, 03MAR06): 2 µg/mL
MIC ([2]; Staphylococcus aureus, Unconfirmed VISA isolate 2019, 03MAR06): 1 µg/mL
MIC50 ([2]; Staphylococcus aureus, 6 unconfirmed VISA isolates (vancomycin MIC 4 ug/ml), combinations at 2.5:1): 2 µg/mL
Structure (SMILES): CC(=O)NC[C@H]1CN(c2ccc(N3CCOCC3)c(F)c2)C(=O)O1 [LZD, linezolid]
